Reference: ChEMBL document CHEMBL1201862, “PubChem BioAssay data set” (2004)
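Each compound was tested at five concentrations against cells in 96-well plates for 48 hours. The concentration for 50% growth inhibition is given as GI50.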 The source made the active and inactive calls. Rule as the data show it: active = GI50 up to about 1.1 µM and inactive = higher.

Columns and labels:
Assay in all cases: growth of human tumour cells (NCI), 48 h
786-0 = test system: 786-0
A549 = test system: A549
ACHN = test system: ACHN
BT-549 = test system: BT-549
CAKI-1 = test system: CAKI-1
CCRF-CEM = test system: CCRF-CEM
COLO 205 = test system: COLO 205
DLD-1 = test system: DLD-1
DMS-273 = test system: DMS-273
DU-145 = test system: DU-145
EKVX = test system: EKVX
HCC 2998 = test system: HCC 2998
HCT-116 = test system: HCT-116
HCT-15 = test system: HCT-15
HL-60 = test system: HL-60
HOP-62 = test system: HOP-62
HOP-92 = test system: HOP-92
HT-29 = test system: HT-29
Hs-578T = test system: Hs-578T
IGROV-1 = test system: IGROV-1
K562 = test system: K562
KM-20L2 = test system: KM-20L2
KM12 = test system: KM12
LOX IMVI = test system: LOX IMVI
LXFL 529 = test system: LXFL 529
M14 = test system: M14
M19-MEL = test system: M19-MEL
MCF7 = test system: MCF7
MDA-MB-231 = test system: MDA-MB-231
MDA-MB-435 = test system: MDA-MB-435
MDA-N = test system: MDA-N
MOLT-4 = test system: MOLT-4
Malme-3M = test system: Malme-3M
NCI-H226 = test system: NCI-H226
NCI-H23 = test system: NCI-H23
NCI-H460 = test system: NCI-H460
NCI-H522 = test system: NCI-H522
NCI/ADR-RES = test system: NCI/ADR-RES
OVCAR-3 = test system: OVCAR-3
OVCAR-4 = test system: OVCAR-4
OVCAR-5 = test system: OVCAR-5
OVCAR-8 = test system: OVCAR-8
PC-3 = test system: PC-3
RPMI-8226 = test system: RPMI-8226
SF-268 = test system: SF-268
SF-295 = test system: SF-295
SF-539 = test system: SF-539
SK-MEL-28 = test system: SK-MEL-28
SK-MEL-2 = test system: SK-MEL-2
SK-MEL-5 = test system: SK-MEL-5
SK-OV-3 = test system: SK-OV-3
SN12C = test system: SN12C
SNB-19 = test system: SNB-19
SNB-78 = test system: SNB-78
SR = test system: SR
SW-620 = test system: SW-620
T47D = test system: T47D
TK-10 = test system: TK-10
U-251 = test system: U-251
UACC-257 = test system: UACC-257
UACC-62 = test system: UACC-62
UO-31 = test system: UO-31
DMS-114 = test system: DMS-114
RXF 393 = test system: RXF 393
SNB-75 = test system: SNB-75
A498 = test system: A498

Measured: GI50

Cc1ccc(C(=O)N(C(C)C)C(C)C)cc1/N=N/N(C)C
> 82.6 µM: HCT-15
inactive: 786-0 > 100 µM | A549 > 100 µM | ACHN > 75.5 µM | BT-549 > 100 µM | CAKI-1 > 100 µM | CCRF-CEM > 10 µM | COLO 205 > 100 µM | DLD-1 77.4 µM | DMS-273 > 100 µM | DU-145 > 100 µM | EKVX > 100 µM | HCC 2998 > 100 µM | HCT-116 > 75.9 µM | HL-60 29.7 µM | HOP-62 > 100 µM | HOP-92 > 64.6 µM | HT-29 74.1 µM | Hs-578T 96.6 µM | IGROV-1 > 100 µM | K562 38.8 µM | KM-20L2 > 100 µM | KM12 45.2 µM | LOX IMVI > 31.6 µM | LXFL 529 31.2 µM | M14 > 100 µM | M19-MEL > 100 µM | MCF7 > 100 µM | MDA-MB-231 > 100 µM | MDA-MB-435 > 100 µM | MDA-N > 100 µM | MOLT-4 45.3 µM | Malme-3M 84.7 µM | NCI-H226 > 100 µM | NCI-H23 41 µM | NCI-H460 > 100 µM | NCI-H522 18.2 µM | NCI/ADR-RES > 100 µM | OVCAR-3 31.3 µM | OVCAR-4 > 100 µM | OVCAR-5 > 100 µM | OVCAR-8 > 100 µM | PC-3 > 100 µM | RPMI-8226 33 µM | SF-268 > 51.6 µM | SF-295 > 86.9 µM | SF-539 > 95.7 µM | SK-MEL-28 41.1 µM | SK-MEL-2 > 100 µM | SK-MEL-5 > 100 µM | SK-OV-3 > 100 µM | SN12C > 100 µM | SNB-19 > 100 µM | SNB-78 35.9 µM | SR 41.4 µM | SW-620 > 92.3 µM | T47D 39.4 µM | TK-10 > 100 µM | U-251 > 80 µM | UACC-257 57.4 µM | UACC-62 > 80.5 µM | UO-31 > 61.4 µM

COC(=O)C1=C(C)N2CCCOC2(C)C(C(=O)OC)C1c1cccc(Cl)c1 (stereo not given)
inactive: A549 > 100 µM | ACHN 28.2 µM | CAKI-1 17.5 µM | CCRF-CEM 27.7 µM | COLO 205 17.3 µM | DMS-114 19.1 µM | EKVX 14 µM | HCC 2998 35.3 µM | HCT-116 25 µM | HL-60 16.4 µM | HOP-62 20.7 µM | HOP-92 19.1 µM | HT-29 22.2 µM | IGROV-1 25.7 µM | K562 27.2 µM | KM-20L2 24.4 µM | KM12 17.9 µM | LXFL 529 20 µM | M14 20 µM | M19-MEL 20.6 µM | MOLT-4 16.7 µM | NCI-H226 17.8 µM | NCI-H23 31.8 µM | NCI-H460 20.5 µM | OVCAR-3 22.2 µM | OVCAR-4 56.5 µM | OVCAR-8 24.9 µM | RPMI-8226 14.3 µM | RXF 393 33.1 µM | SF-268 32.8 µM | SF-295 21.7 µM | SF-539 27.8 µM | SK-MEL-28 21.7 µM | SK-MEL-2 18.1 µM | SK-MEL-5 > 100 µM | SNB-19 42.3 µM | SR > 10 µM | SW-620 > 100 µM | TK-10 53 µM | UACC-257 19.7 µM | UACC-62 15.2 µM | UO-31 22.3 µM
active: SNB-75 0.452 µM

N#CN1CCC2CC(=O)CCC2C1 (stereo not given)
> 100 µM: HCT-15
inactive: 786-0 > 100 µM | A549 > 100 µM | ACHN > 100 µM | CAKI-1 > 100 µM | DMS-114 > 100 µM | HCC 2998 > 100 µM | HCT-116 > 100 µM | HL-60 > 100 µM | HOP-92 > 100 µM | IGROV-1 > 100 µM | K562 > 100 µM | KM-20L2 > 100 µM | KM12 > 100 µM | LOX IMVI > 100 µM | M14 > 100 µM | MOLT-4 > 100 µM | Malme-3M > 100 µM | NCI-H226 > 100 µM | NCI-H23 > 100 µM | OVCAR-3 > 100 µM | OVCAR-4 > 100 µM | OVCAR-5 > 100 µM | RXF 393 > 100 µM | SF-268 > 100 µM | SK-MEL-28 > 100 µM | SK-MEL-2 > 100 µM | SK-MEL-5 > 10 µM | SK-OV-3 > 100 µM | SN12C > 100 µM | SNB-19 > 100 µM | SNB-75 > 100 µM | SNB-78 > 100 µM | SR > 100 µM | SW-620 > 100 µM | TK-10 > 100 µM | U-251 > 100 µM | UACC-62 > 100 µM | UO-31 > 100 µM

O=C(CCC(=O)N/N=C/c1ccccc1O)N/N=C/c1ccccc1O
inactive: 786-0 > 100 µM | A549 > 100 µM | CAKI-1 > 100 µM | COLO 205 > 100 µM | DMS-114 > 100 µM | DMS-273 > 100 µM | EKVX 20.9 µM | HCC 2998 > 100 µM | HCT-116 80.7 µM | HOP-92 27.9 µM | HT-29 > 100 µM | IGROV-1 33.9 µM | K562 > 100 µM | KM-20L2 > 100 µM | KM12 > 100 µM | LXFL 529 > 100 µM | M19-MEL > 100 µM | MOLT-4 > 100 µM | Malme-3M > 100 µM | NCI-H226 > 100 µM | NCI-H23 94.6 µM | NCI-H522 53.2 µM | OVCAR-3 42.1 µM | OVCAR-4 > 100 µM | OVCAR-5 > 100 µM | OVCAR-8 92 µM | RPMI-8226 > 100 µM | RXF 393 16 µM | SF-268 18.8 µM | SF-295 32.5 µM | SF-539 > 10 µM | SK-MEL-28 41.1 µM | SK-MEL-2 17.5 µM | SK-MEL-5 > 100 µM | SK-OV-3 18.9 µM | SN12C > 100 µM | SNB-19 56.6 µM | SNB-75 12.9 µM | SNB-78 51.3 µM | SR > 100 µM | SW-620 > 100 µM | TK-10 29.4 µM | U-251 32.7 µM | UACC-257 > 100 µM | UACC-62 41.8 µM | UO-31 > 100 µM
51.4 µM: HCT-15

Cc1nc2ccccc2nc1-c1ccc(/N=[N+](\[O-])c2ccc(-c3nc4ccccc4nc3C)cc2)cc1
> 100 µM: HCT-15
inactive: 786-0 45.5 µM | A498 > 53.2 µM | A549 > 100 µM | ACHN > 55.7 µM | BT-549 > 85.9 µM | CAKI-1 > 100 µM | CCRF-CEM > 100 µM | COLO 205 > 100 µM | DU-145 > 94.4 µM | EKVX > 100 µM | HCC 2998 > 100 µM | HCT-116 > 79.8 µM | HL-60 > 100 µM | HOP-62 23.9 µM | HOP-92 > 39.5 µM | HT-29 > 100 µM | Hs-578T 27.5 µM | IGROV-1 > 82.4 µM | K562 > 100 µM | KM12 > 100 µM | LOX IMVI > 100 µM | M14 > 96.2 µM | MCF7 > 100 µM | MDA-MB-231 24.2 µM | MDA-MB-435 > 100 µM | MDA-N > 100 µM | MOLT-4 > 100 µM | Malme-3M 42.4 µM | NCI-H226 > 74.8 µM | NCI-H23 > 83.4 µM | NCI-H460 > 100 µM | NCI-H522 > 63.4 µM | NCI/ADR-RES > 64.9 µM | OVCAR-3 > 100 µM | OVCAR-4 > 100 µM | OVCAR-5 > 100 µM | OVCAR-8 50.1 µM | PC-3 > 100 µM | RPMI-8226 > 100 µM | RXF 393 28.8 µM | SF-268 36.6 µM | SF-295 59.6 µM | SF-539 > 50.5 µM | SK-MEL-28 > 100 µM | SK-MEL-2 > 68.1 µM | SK-MEL-5 > 96.4 µM | SK-OV-3 30.8 µM | SN12C > 92.7 µM | SNB-19 48.8 µM | SNB-75 21 µM | SR > 100 µM | SW-620 > 100 µM | T47D > 100 µM | TK-10 20.1 µM | U-251 27.5 µM | UACC-257 > 100 µM | UACC-62 > 93.5 µM | UO-31 > 81.3 µM
